Assay results from paper PMC9020739, “Identification of a two-component regulatory system involved in antimicrobial peptide resistance in Streptococcus pneumoniae” (PLoS Pathogens, 2022).
Where a SMILES comes first, the peptide text is derived from it. Bridges are numbered along the chain shown (N, C = ends). [ ]: non-standard residue; d: D form. The star is where a group is joined. Ileψ(thiazoline)Cys = CC[C@H](C)[C@H](N)C1=N[C@H](C(=O)*)CS1; dOrn = NCCC[C@@H](N)C(=O)O

How the values were obtained:
Assay type in all cases: cell-based, Streptococcus pneumoniae
[1] = system: BceAB protein levels in R6 WT strain; assay: Quantitative proteomics (TMT labeling, LC-MS/MS); conditions: R6 wild-type, bacitracin 1 μg/ml for 45 min versus untreated
Method: (§1) In experiments 1 and 2, we analyzed the R6 WT and R6 Δtcs01 strains treated or not with 1 μg/mL of bacitracin. In experiment 3, we analyzed the R800-Δhk01-PcomX-rr01-hk01 strain treated with either 1 μg/mL or 32 μg/mL of bacitracin.
(§2) Strains were grown in 50 mL of THY medium at 37°C without agitation and in anaerobic conditions until the absorbance reaches approximatively 0.3. After the addition of bacitracin (final concentrations of 1 or 32 μg/mL), the bacterial cultures were incubated for 45 min at 37°C with a slight mechanical agitation (60 rpm). Then, the cell density was adjusted to an OD600nm = 0.8 in 10 mL. After centrifugation at 4,000 x g for 10 min at 4°C, the pellets were resuspended with 1 mL of cold Tris-HCl 50 mM pH 7.5 and centrifuged at 10,000 x g, for 5 min at 4°C. The pellets were harvested and treated in the same conditions than previously. The contents were transferred into Eppendorf low-binding tubes. After a last centrifugation at 10,000 x g for 5 min at 4°C, the bacterial pellets were stored at -80°C. […] The proteins were quantified by using BCA assay kit (Thermo Scientific) before sending the samples to mass spectrometry analysis.
(§3) To compare the proteins abundance between the different conditions/samples, we used a multiplexed quantitation method after labeling by isobaric Tandem Mass Tags (TMT). […]
(§4) We simultaneously compared 6 TMT samples within the same experiment. In the experiment 1 we analyzed one sixplex containing R6 WT, R6 WT+ Bacitracin 1, R6 WT+ Bacitracin 2, R6 ΔTCS, R6 ΔTCS+ Bacitracin 1, R6 ΔTCS+ Bacitracin 2 labeled with reporter ions 126, 127, 128, 129, 130 and 131, respectively; and experiment 2 is a second sixplex containing R6 WT1, R6 WT2, R6 WT+ Bacitracin, R6 ΔTCS1, R6 ΔTCS2, R6 ΔTCS+ Bacitracin labeled with reporter ions 126, 127, 128, 129, 130 and 131, respectively. The calculated ratios shown in Figs 5 and S5 are: experiment 1: R6 WT+ Bacitracin (1/2)/R6WT and R6 WT+ Bacitracin (1/2)/ R6 ΔTCS+ Bacitracin (1/2); experiment 2: R6 WT+ Bacitracin /R6WT (1/2) and R6 WT+ Bacitracin/ R6 ΔTCS+ Bacitracin. […]

[2] = system: protein levels in R6 Δtcs01 strain; assay: Quantitative proteomics (TMT labeling, LC-MS/MS)
Method: as §1, §2, §3, §4

[3] = system: S. pneumoniae R6 mutant strains (ΔbceAB, Δtcs01, ΔbceAB/tcs01); assay: Growth of wild-type and mutant strains in microplates with bacitracin; conditions: Todd-Hewitt broth, various bacitracin concentrations, 4 biological replicates (Fig 1)
Method: The MIC of various antimicrobial peptides for R6, R800 and D39 strains was determined by classical 2-fold broth dilution method. Cells were first grown in Todd-Hewitt medium at 37°C without agitation and in anaerobic conditions until the absorbance reaches approximatively 0.3. Complementation strains were grown with 0.5 μM ComS inducer until the appropriate OD. Cells were then diluted at final OD600nm = 0.002 in 96-well plates containing 300 μL of Todd-Hewitt medium (and 2 μM ComS inducer for the complementation strains) with serial dilutions of antimicrobial peptides. Pneumococcal growth was monitored by a microplate reader (TECAN) at 37°C without agitation. The absorbance was followed at 600 nm every 15 min for 15 h.

CC[C@H](C)[C@H](N)C1=N[C@H](C(=O)N[C@@H](CC(C)C)C(=O)N[C@H](CCC(=O)O)C(=O)N[C@H](C(=O)N[C@H]2CCCCNC(=O)[C@H](CC(N)=O)NC(=O)[C@@H](CC(=O)O)NC(=O)[C@H](Cc3cnc[nH]3)NC(=O)[C@@H](Cc3ccccc3)NC(=O)[C@H]([C@@H](C)CC)NC(=O)[C@@H](CCCN)NC2=O)[C@@H](C)CC)CS1 [bacitracin] ({Ileψ(thiazoline)Cys}-L[dE]IK[dOrn]I[dF]H[dD]N; lactam 4-C (inferred); N-terminus assumed) was tested, and the “Accumulation of BceAB upon treatment” value [1] was 7 ± 3 fold, the “BceAB protein levels upon treatment” value ([2]; R6 Δtcs01, bacitracin 1 μg/ml for 45 min versus untreated, average) was 0.99 ± 0.09 fold and the “Abundance of LiaS upon treatment” value ([2]; R6 Δtcs01 treated with bacitracin, TMT proteomics) was “increased by two-fold”. For the same compound, the “Growth of the mutant strains” value [3] was “severely impaired”.
